# Experimental data published in patent US12433872B2, “Treatment of Acanthamoeba or Balamuthia trophozoites and/or cysts” (GEORGIA STATE UNIVERSITY RESEARCH FOUNDATION, INC., priority 2018, dated 2025).
# Where two headings read alike, the source gives them in different places.
# Experiments:
# Assay type in all cases: cell-based
# [1] = test system: Acanthamoeba healyi cysts; assay: Encystation drug susceptibility / excystation viability assay, 30 day recovery, A. healyi cysts; conditions: 720 h, read-out: A. healyi 30 day MCC
# Procedure: (§1) The trophozoites of Acanthamoeba were harvested by mechanical detachment and collected via centrifugation at 4000 rpm at 4° C. for 5 minutes. The trophozoites were washed in 10 mL of Neff's Encystment Media (NEM). NEM composition is 20 mM Tris-HCL [pH 8.8] (2.43 g/L), 100 mM KCL (7.46 g/L), 8 mM MgSO4 (962.96 mg/L), 0.4 mM CaCL2 58.81 mg/L) and 1 mM NaHCO3 (84.01 mg/L) (Neff et al. 1964). All reagents were bought from Sigma Aldrich. Centrifugation of the trophozoites was repeated to ensure any residual growth medium was removed. The pellet was resuspended in a final volume of 15 mL of NEM, cultured in 75 cm^2 corning tissue culture flasks and incubated vertically in a thermal shaker, shaken at 100 rpm at 37° C. for 72 hours to produce fully matured cysts. NEM was supplemented with 250 μg of penicillin/streptomycin. Fresh cysts were produced each time for any experimentation.
# (§2) At 72 hours the cysts were harvested using a cell scraper and collected via centrifugation at 4000 rpm at 25° C. for 10 minutes. The cells were washed twice in 10 mL of HyClone™ water, Molecular Biology Grade, and centrifugation was repeated to ensure the removal of any residual NEM. The cell suspension was washed with 0.5% sodium dodecyl sulphate (SDS) to remove any remaining trophozoites and immature cysts. The fully mature cysts were further washed twice with 10 mL of HyClone™ water and 1% NEM, centrifugation was repeated to remove any residue of SDS. The concentration of mature cysts was determined using a haemocytometer and adjusted to 1×10^4 cysts/mL in NEM.
# (§3) All test compounds were prepared as 5 mg/mL stock solutions in dimethylsulfoxide (DMSO). All compounds were diluted in NEM, serially diluted in 2-fold dilutions 6 or 11 times, yielding a screening concentration range of 1.56 μg/mL to 50 μg/mL or 48 ng/mL to 50 μg/mL with a final highest screening concentration of 1% DMSO.
# (§4) Based on this, a strain specific test period and also a 30 day non-specific recovery time were considered. For the 30 day recovery period, the media was changed 5 times to ensure the contents of wells dis not evaporate and have an effect within the results of the assay.
# (§5) 90 μL of 1×10^4 Cysts/ml and 10 μL of experimental compounds from the screening plates were produced according to the protocols above and combined into a Corning clear 96 well treated tissue culture plate. Control wells include cysts in non-drug treated, 1% DMSO, NEM (to be used for negative growth control), NEM Blank, PG blank and cysts in non-drug treated, 1% DMSO, PG (to excyst cells and to be used for positive growth control). The total well volume for all wells was 100 μL. The drug exposed plates were screened at 27° C. for 6 or 24 hours only. At the exposure time point the plates were centrifuged at 4000 rpm at 25° C. for 10 minutes and washed twice with phosphate-buffered saline (PBS) to remove any residual experimental compound.
# (§6) Once the plate(s) underwent the Encystation drug susceptibility process, all wells except the negative growth control and NEM blank wells received PG growth medium. All plates were left to recover at 27° C. for the strain specific time period of 5, 9 or 11 days depending on the species of Acanthamoeba. At each of the strain specific time points the plates were removed from incubation and microscopically analysed (qualitatively) for the excystation process for the emergence of excysted viable trophozoites or residual cysts. The presence of excysted trophozoites indicated viable amoebae (non-cystistatic or cysticidal—no effect) and the absence of excystation was considered as cystistatic/cysticidal effects.
# [2] = test system: Acanthamoeba castellanii trophozoites; assay: Activity against Acanthamoeba castellanii trophozoites
# Procedure: Two Acanthamoeba species (Acanthamoeba castellanii—ATCC50370 and Acanthamoeba culbertsoni—ATCC30171) were bought from the American Type Culture Collection (ATCC) and one species (Acanthamoeba healyi) was donated from the Centers for Disease Control and Prevention (CDC) for our experimentations. Trophozoites were thawed and grown in 10 mL of a nutrient rich Peptose-Glucose (PG) media. The PG media composition is 83.26 mM Glucose (15 g/L), Protease Peptone (15 g/L, yeast extract is manufactured under controlled conditions to retain its vitamin content and other nutritive values such as free amino acids, no other composition information given), 2.2 mM KH2PO4 (300 mg/L), 2.97 μM Thiamine (1 mg/L), 99.86 μM L-methionine (14.9 mg/L), 4.6 μM Vitamin B12 (83.3 μl of 0.1 mg/mL stock/L) and 68 μM Biotin (83.3 μl of 0.2 mg/mL stock/L). […] One mL/L of the salt solution was added to the media stock prior to autoclaving. All reagents were purchased from Sigma Aldrich except the Glucose which was purchased from Alfa Aesar. The cell pellet was resuspended in a final volume of 10 mL of PG media, cultured in 75 cm^2 coming tissue culture flasks and incubated at 27° C. PG was supplemented with 125 μg of penicillin/streptomycin. Sub-culturing occurred twice per week to allow the continued growth and development of the Acanthamoeba trophozoites. […]
# [3] = test system: Acanthamoeba castellanii (ATCC50370) cysts; assay: Encystation drug susceptibility / excystation viability assay, 30 day recovery, A. castellanii cysts; conditions: ATCC50370, 720 h, read-out: A. castellanii 30 day MCC
# Procedure: as §1, §2, §3, §4, §5, §6
# [4] = test system: Acanthamoeba culbertsoni (ATCC30171) cysts; assay: Encystation drug susceptibility / excystation viability assay, 30 day recovery, A. culbertsoni cysts; conditions: ATCC30171, 720 h, read-out: A. culbertsoni 30 day MCC
# Procedure: as §1, §2, §3, §4, §5, §6
# A549 cells = assay: Toxicity to human A549 cells
# [5] = test system: Balamuthia mandrillaris trophozoites; assay: Activity against Balamuthia mandrillaris trophozoites; conditions: for IC50: Balamuthia mandrillaris
# Procedure: Balamuthia mandrillaris trophozoites were thawed and grown in 10 ml of BM-3 medium. […] After autoclaving, complete BM-3 media was produced by the addition of 10% fetal bovine serum and 125 μg of penicillin/streptomycin antibiotics. The table describes all of the compounds and the activity against Balamuthia trophozoites compared to the activity for select Acanthamoeba trophozoites shown in Table 5.
# [6] = minimum cysticidal concentration, no recovery up to 30 days
# [7] = trophozoites, n = 2, Table 6, read-out: Acanthamoeba castellanii IC50
# [8] = human A549 cells, read-out: A549 cell IC50
# [9] = trophozoites, n = 2, read-out: Balamuthia mandrillaris IC50
# [10] = read-out: A. cactellanii Trophozoite IC50
# [11] = read-out: Acanthamoeba castellanii IC50
# [12] = Homo sapiens, A549, read-out: A549 cell IC50
# [13] = read-out: Balamuthia mandrillaris IC50
SMILES,"MCC [1, 6] [µM]","IC50 [2, 7] [µM]","MCC [3, 6] [µM]","MCC [4, 6] [µM]",IC50 (A549 cells; [8]) [µM],"IC50 [5, 9] [µM]",MCC [1] [µM],"IC50 [2, 10] [µM]","IC50 [2, 11] [µM]",MCC [3] [µM],MCC [4] [µM],IC50 (A549 cells; [12]) [µM],"IC50 [5, 13] [µM]","times more potent than pentamide as reported in Schuster et al. ([5]; B. mandrillaris, versus pentamidine 29.38 μM)",IC50 ([5]; read-out: IC50 against B. mandrillaris) [µM]
"COc1cc(Oc2ccc(-c3nc4ccc(C(=N)NC(C)C)cc4[nH]3)c(Br)c2)ccc1-c1nc2ccc(C(=N)NC(C)C)cc2[nH]1 [N, 2-(2-Bromo-4-(4-(6-(N-isopropylcarbamimidoyl)-1H-benzo[d]imidazol-2-yl)-3-methoxyphenoxy)phenyl)-N-isopropyl-1H-benzo[d]imidazole-6-carboximidamide]",5.52,0.56,9.2,3.68,3.92,0.12,,,,,,,,,
"CC(C)NC(=N)c1ccc2nc(-c3ccc(Oc4ccc(-c5nc6ccc(C(=N)NC(C)C)cc6[nH]5)c(Br)c4)cc3Br)[nH]c2c1 [Compound D, 2,2′-(Oxybis(2-bromo-4,1-phenylene))bis(N-isopropyl-1H-benzo[d]imidazole-6-carboximidamide)]",,,,,,,3.4,0.31,0.31,3.4,1.27,4.17,0.1,,
"CC(C)NC(=N)c1ccc2nc(-c3ccc(Oc4ccc(-c5nc6ccc(C(=N)NC(C)C)cc6[nH]5)c(F)c4F)cc3Br)[nH]c2c1 [Compound H, 2-(2-Bromo-4-(2,3-difluoro-4-(6-(N-isopropylcarbamimidoyl)-1H-benzo[d]imidazol-2-yl)phenoxy)phenyl)-N-isopropyl-1H-benzo[d]imidazole-6-carboximidamide]",,,,,,,1.88,0.27,0.27,1.88,1.88,3.11,0.1,,
"CC(C)NC(=N)c1ccc2nc(-c3ccc(Oc4ccc(-c5nc6ccc(C(=N)NC(C)C)cc6[nH]5)c(Br)c4)c(Br)c3)[nH]c2c1 [Compound R, 2-(2-Bromo-4-(2-bromo-4-(6-(N-isopropylcarbamimidoyl)-1H-benzo[d]imidazol-2-yl)phenoxy)phenyl)-N-isopropyl-1H-benzo[d]imidazole-6-carboximidamide]",3.56,0.55,2.66,2.66,4.18,0.2,,,,,,,,,
"CC(C)NC(=N)c1ccc2nc(-c3ccc(Oc4ccc(-c5nc6ccc(C(=N)NC(C)C)cc6[nH]5)cc4Br)cc3)[nH]c2c1 [O, 2-(3-Bromo-4-(4-(6-(N-isopropylcarbamimidoyl)-1H-benzo[d]imidazol-2-yl)phenoxy)phenyl)-N-isopropyl-1H-benzo[d]imidazole-6-carboximidamide]",11.4,0.67,11.4,11.4,3.71,0.13,,,,,,,,,
"CC(C)NC(=N)c1ccc2nc(-c3ccc(Oc4ccc(-c5nc6ccc(C(=N)NC(C)C)cc6[nH]5)cc4F)cc3)[nH]c2c1 [Compound I, 2-(3-Fluoro-4-(4-(6-(N-isopropylcarbamimidoyl)-1H-benzo[d]imidazol-2-yl)phenoxy)phenyl)-N-isopropyl-1H-benzo[d]imidazole-6-carboximidamide]",4.2,0.71,4.2,8.41,3.46,0.05,,,,,,,,587.6,0.05
"CC(C)NC(=N)c1ccc2nc(-c3cc(F)c(Oc4ccc(-c5nc6ccc(C(=N)NC(C)C)cc6[nH]5)c(F)c4)c(F)c3)[nH]c2c1 [Compound C, 2-(3,5-Difluoro-4-(3-fluoro-4-(6-(N-isopropylcarbamimidoyl)-1H-benzo[d]imidazol-2-yl)phenoxy)phenyl)-N-isopropyl-1H-benzo[d]imidazole-6-carboximidamide]",,,,,,,23.1,1.22,1.22,23.1,11.6,34.8,0.49,,
"CC(C)NC(=N)c1ccc2nc(-c3ccc(Oc4ccc(-c5nc6ccc(C(=N)NC(C)C)cc6[nH]5)c(Br)c4)cc3)[nH]c2c1 [M, 2-(2-Bromo-4-(4-(6-(N-isopropylcarbamimidoyl)-1H-benzo[d]imidazol-2-yl)phenoxy)phenyl)-N-isopropyl-1H-benzo[d]imidazole-6-carboximidamide]",3.8,0.39,2.85,5.7,3.92,0.08,,,,,,,,,
"CC(C)NC(=N)c1ccc2nc(-c3cc(F)c(Oc4ccc(-c5nc6ccc(C(=N)NC(C)C)cc6[nH]5)c(Br)c4)c(F)c3)[nH]c2c1 [Compound F, 2-(2-Bromo-4-(2,6-difluoro-4-(6-(N-isopropylcarbamimidoyl)-1H-benzo[d]imidazol-2-yl)phenoxy)phenyl)-N-isopropyl-1H-benzo[d]imidazole-6-carboximidamide]",,,,,,,3.52,0.59,0.59,5.29,5.29,13.7,0.59,,
"CC(C)NC(=N)c1ccc2nc(-c3ccc(Oc4ccc(-c5nc6ccc(C(=N)NC(C)C)cc6[nH]5)c(Br)c4)c(F)c3)[nH]c2c1 [Q, 2-(2-Bromo-4-(2-fluoro-4-(6-(N-isopropylcarbamimidoyl)-1H-benzo[d]imidazol-2-yl)phenoxy)phenyl)-N-isopropyl-1H-benzo[d]imidazole-6-carboximidamide]",3.6,0.41,3.6,2.7,3.51,0.1,,,,,,,,,
"COc1cc(Oc2ccc(-c3nc4ccc(C(=N)NC(C)C)cc4[nH]3)cc2F)ccc1-c1nc2ccc(C(=N)NC(C)C)cc2[nH]1 [K, 2-(3-Fluoro-4-(4-(6-(N-isopropylcarbamimidoyl)-1H-benzo[d]imidazol-2-yl)-3-methoxyphenoxy)phenyl)-N-isopropyl-1H-benzo[d]imidazole-6-carboximidamide]",7.72,1.1,9.65,7.89,4.03,0.14,,,,,,,,,
